Earlier results in patent US12692503B2, “Generation of acyl amino acids” (Modular Genetics, Inc., priority 2007, dated 2026).
*1 amine or outer side, *2 acyl side, *3 side chain or, on linkers, in order; H or OH if unused. Where a SMILES comes first, the peptide text is derived from it. Bridges are numbered along the chain shown (N, C = ends). [ ]: non-standard residue; d: D form. X1 = CC(C)CCCCCCCCC[C@H](CC(=O)[*:1])O[*:2]

Settings: organic solvents and water

CC(C)CCCCCCCCC[C@@H]1CC(=O)N[C@@H](CCC(=O)O)C(=O)N[C@@H](CC(C)C)C(=O)N[C@H](CC(C)C)C(=O)N[C@@H](C(C)C)C(=O)N[C@@H](CC(=O)O)C(=O)N[C@H](CC(C)C)C(=O)N[C@@H](CC(C)C)C(=O)O1 [surfactin] (EL[dL]VD[dL]L; linker N-C via X1)
solubility: soluble in both organic solvents and water
